Test results from PMC8372549 (Toxicology and applied pharmacology, 2021).

How the values were obtained:
Format in all cases: biochemical
cytochrome P450 1A1 [1] = target: T1, cytochrome P450 1A1 (Homo sapiens, UniProt P04798); assay: fluorometric O-deethylation by recombinant CYP1A1 bactosomes; conditions: cited from earlier work
T1 sequence (P04798 1-512): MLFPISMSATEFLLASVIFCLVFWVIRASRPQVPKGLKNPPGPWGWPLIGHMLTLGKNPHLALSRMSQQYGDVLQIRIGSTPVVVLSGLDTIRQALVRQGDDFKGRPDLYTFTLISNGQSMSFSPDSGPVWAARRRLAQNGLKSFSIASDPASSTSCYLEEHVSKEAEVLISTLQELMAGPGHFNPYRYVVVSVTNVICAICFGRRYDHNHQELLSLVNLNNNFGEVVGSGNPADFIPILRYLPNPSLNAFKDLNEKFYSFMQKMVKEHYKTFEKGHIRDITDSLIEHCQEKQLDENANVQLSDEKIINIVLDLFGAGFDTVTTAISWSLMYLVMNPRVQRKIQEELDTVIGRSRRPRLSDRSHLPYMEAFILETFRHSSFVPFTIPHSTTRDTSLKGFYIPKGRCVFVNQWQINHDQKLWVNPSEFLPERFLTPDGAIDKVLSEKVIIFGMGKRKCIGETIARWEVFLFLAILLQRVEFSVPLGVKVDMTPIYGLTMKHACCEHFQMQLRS

cytochrome P450 1A1 [2] = target: T1, cytochrome P450 1A1; assay: fluorometric CEC O-deethylation with recombinant CYP1A1 bactosomes
CYP1B1 = target: T2, CYP1B1 (Homo sapiens, UniProt Q16678); assay: fluorometric 7-ethoxyresorufin O-deethylation with recombinant CYP1B1 bactosomes
T2 sequence (Q16678 1-543): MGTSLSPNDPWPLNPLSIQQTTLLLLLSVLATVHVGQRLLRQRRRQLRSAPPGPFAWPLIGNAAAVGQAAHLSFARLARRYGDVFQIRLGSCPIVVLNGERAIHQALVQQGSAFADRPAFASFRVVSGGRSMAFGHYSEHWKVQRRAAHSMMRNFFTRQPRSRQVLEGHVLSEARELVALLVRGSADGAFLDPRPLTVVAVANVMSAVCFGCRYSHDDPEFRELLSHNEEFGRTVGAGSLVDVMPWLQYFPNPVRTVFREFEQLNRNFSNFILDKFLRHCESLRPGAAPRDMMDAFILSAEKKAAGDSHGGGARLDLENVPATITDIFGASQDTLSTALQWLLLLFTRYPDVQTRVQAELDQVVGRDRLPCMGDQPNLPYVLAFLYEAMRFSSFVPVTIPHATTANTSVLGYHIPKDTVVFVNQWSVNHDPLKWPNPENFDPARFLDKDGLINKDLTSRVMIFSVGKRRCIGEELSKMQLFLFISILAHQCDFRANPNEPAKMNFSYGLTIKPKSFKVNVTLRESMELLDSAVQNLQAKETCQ

CCOc1ccc2cc(C#N)c(=O)oc2c1 [CEC, 3-cyano-7-ethoxycoumarin]
Km (cytochrome P450 1A1 [1]): 0.5 µM

c1ccc(CSSSCc2ccccc2)cc1 [DTS, dibenzyl trisulfide]
Ki (cytochrome P450 1A1 [2]): 4.55 ± 0.37 µM
IC50 (CYP1B1): 1.7 ± 0.3 µM
